Measured values as given in patent publication US9273330B2, “Butanol tolerance in microorganisms” (Butamax Advanced Biofuels LLC, priority 2012, dated 2016).

Assays:
[1] = tested on: isobutanologen PNY1530; assay: Isobutanol selection: viable cell count after 24 hour exposure of high-density PNY1530 cultures; type: cell-based, Saccharomyces cerevisiae
Procedure: Cultures of PNY1530 were subjected to five rounds of selection in increasing concentrations of isobutanol. The first round of isobutanol selection was initiated by growing PNY1530 to OD600=1.8 in 100 ml of SEU culture medium (yeast nitrogen base supplemented with Sigma yeast synthetic dropout medium without uracil (Sigma Y1501) and with 0.2% ethanol). The cells were centrifuged, resuspended in 100 ml of fresh culture medium and grown for several hours to approximately 3 OD600 units. The culture was centrifuged and resuspended at OD600=100 (approximately 5×10^8 cfu/ml) in 3 ml of culture medium without ethanol. A small sample was removed from the cell suspension for a viable cell count, and the remaining cell suspension was divided into three cultures containing 1.5% isobutanol, 1.7% isobutanol or 2.0% isobutanol. Each culture was incubated at 30° C. on a roller drum for 24 hours. The cultures were then centrifuged, and the cell pellets were each resuspended in 1 ml of culture medium without isobutanol or ethanol. Small samples were removed from the cultures for viable cell counts, and the remaining portion of each cell suspension (approximately 975 μl) was inoculated into 10 ml of SEU culture medium. The cultures were incubated at 30° C. with shaking. In general, each subsequent round of isobutanol selection was initiated with cells that had survived the highest level of isobutanol selection in the previous round of exposure.
Increased numbers of survivors were observed following each exposure to isobutanol (Table 7). For example, only 1.8% of the cells survived 24 hour exposure to 2.0% isobutanol during Selection I whereas 100% of the population survived 24 hour exposure to 2.0% isobutanol during Selection IV.

[2] = tested on: population of cells that had survived 24 hour exposure to 2.5% isobutanol during Selection IV; assay: Serial passage in SEGU culture medium with glucose and isobutanol; type: cell-based, Saccharomyces cerevisiae; details: 30° C., after 48 hours (1:2 dilution after 24 hours)
Procedure: A population of cells that had been evolved through four isobutanol exposures (Selection IV, Example 2) was repeatedly sub-cultured in growth medium supplemented with glucose and isobutanol to select for cells that were better able to utilize glucose in the presence of isobutanol.
A population of cells that had survived 24 hour exposure to 2.5% isobutanol during Selection IV (see Table 7) was diluted into SEGU culture medium (SEU with 0.2% glucose) to OD600=0.8. The diluted cell suspension was divided into 1.5 ml cultures, dispensed into 2 ml sterile screw cap tubes and supplemented with various concentrations of isobutanol. The cultures were incubated at 30° C. on a roller drum. After 24 hours, the cultures were diluted 1:2 with the SEGU culture medium comprising the same amount of isobutanol as the previous culture. […] The 0.5% culture was serially sub-cultured 10 times by diluting the culture to approximately OD600=0.5 in SEGU culture medium containing 0.5% isobutanol and incubating the diluted culture at 30° C. for 24 to 48 hours before diluting the culture again.

SMILES: CC(C)CO [Isobutanol, 2-methyl-1-propanol]
- Percent Survival ([1]; 1.5% isobutanol, Selection I): 73
- Percent Survival ([1]; 1.7% isobutanol, Selection I): 53
- Percent Survival ([1]; 2.0% isobutanol, Selection I): 1.8 →
- Percent Survival ([1]; 2.0% isobutanol, Selection I, listed as isobutanol): 1.8
- Percent Survival ([1]; 2.0% isobutanol, Selection II): 12 →
- Percent Survival ([1]; 2.0% isobutanol, Selection III): 21
- Percent Survival ([1]; 2.0% isobutanol, Selection IV): 100
- Percent Survival ([1]; 2.2% isobutanol, Selection III): 0.8
- Percent Survival ([1]; 2.2% isobutanol, Selection IV): 45
- Percent Survival ([1]; 2.5% isobutanol, Selection II): 0.0003
- Percent Survival ([1]; 2.5% isobutanol, Selection III): 0.0006 →
- Percent Survival ([1]; 2.5% isobutanol, Selection IV): 14 →
- Percent Survival ([1]; 2.5% isobutanol, Selection V): 4.5
- Percent Survival ([1]; 2.7% isobutanol, Selection II): no survivors were detected
- Percent Survival ([1]; 2.7% isobutanol, Selection V): 0.004
- highest concentration that permitted growth [2]: 0.5%
